Like-named read-outs stand apart in the source and are kept apart here.
Columns and labels:
Beas-2B cells = experiment: MTT cytotoxicity on human normal cell line Beas-2B (24 h); assay type: cell-based; conditions: for IC50: Homo sapiens, BEAS-2B, 24 h, read-out: IC50 Values of Human Normal Cell Lines, Beas-2B
[1] = molecular target: SARS-CoV-2 spike RBD protein (Severe acute respiratory syndrome coronavirus 2, UniProt P0DTC2); experiment: biochemical; assay type: binding
SARS-CoV-2 pseudovirus [2] = test system: SARS-CoV-2 pseudovirus
HEK-293T-ACE2^h cells = experiment: MTT cytotoxicity assay on host cells (4 h); assay type: cell-based, human; conditions: for CC0 (maximum nontoxic concentration) / TC50 (concentration reducing cell viability by 50%): MTT, 4 h
LO2 cells = experiment: MTT cytotoxicity on human normal cell line LO2 (24 h); assay type: cell-based; conditions: for IC50: Homo sapiens, L02, 24 h, read-out: IC50 Values of Human Normal Cell Lines, LO2
HEK 293 cells = experiment: MTT cytotoxicity on human normal cell line HEK 293 (24 h); assay type: cell-based; conditions: for IC50: Homo sapiens, HEK293, 24 h, read-out: IC50 Values of Human Normal Cell Lines, HEK 293
SARS-CoV-2 pseudovirus [3] = experiment: microbe, parasite or virus in culture; conditions: Severe acute respiratory syndrome-related coronavirus, read-out: IC50 (inhibition of pseudovirus entry into host cells)

| SMILES | IC50 (Beas-2B cells) [µM] | Kd [1] [µM] | SI (ratio of TC50 to IC50) (SARS-CoV-2 pseudovirus [2]) | IC50 (SARS-CoV-2 pseudovirus [2]; read-out: IC50 (inhibition of pseudovirus entry into host cells)) [µM] | CC0 (maximum nontoxic concentration) (HEK-293T-ACE2^h cells) [µM] | TC50 (concentration reducing cell viability by 50%) (HEK-293T-ACE2^h cells) [µM] | IC50 (LO2 cells) [µM] | IC50 (HEK 293 cells) [µM] | IC50 (SARS-CoV-2 pseudovirus [3]) [µM] | cytotoxic effect (in words), Beas-2B (Beas-2B cells; tested dose of 500 μM) | binding signal [1] [nm] | cytotoxicity to the host cells (in words) (HEK-293T-ACE2^h cells; 500 μM) | cytotoxic effect (in words), LO2 (LO2 cells; tested dose of 500 μM) | cytotoxic effect (in words), HEK 293 (HEK 293 cells; tested dose of 500 μM) |
| --- | --- | --- | --- | --- | --- | --- | --- | --- | --- | --- | --- | --- | --- | --- |
| O=c1c(O)c(-c2ccc(O)cc2)oc2cc(O)cc(O)c12 [compound 14, Kaempferol] | > 200 | 18.5 ± 5.49 | >5.77 | 34.6 ± 7.69 | 200 | >200 | > 200 | > 200 | < 50 | – | – | – | – | – |
| O=c1c(O)c(-c2ccc(O)c(O)c2)oc2cc(O)cc(O)c12 [compound 15, Quercetin] | > 500 | 11.2 ± 3.85 | – | – | 300 | >500 | > 500 | > 500 | – | – | – | – | – | – |
| O=c1c(O)c(-c2cc(O)c(O)c(O)c2)oc2cc(O)cc(O)c12 [compound 16, Myricetin] | > 500 | – | – | – | 300 | >500 | > 500 | > 500 | – | did not show any significant cytotoxic effect | 0.60 | did not demonstrate any cytotoxicity | did not show any significant cytotoxic effect | did not show any significant cytotoxic effect |
| Oc1cc(O)c2c(c1)O[C@H](c1ccc(O)c(O)c1)[C@@H](O)[C@@H]2c1c(O)cc(O)c2c1O[C@H](c1ccc(O)c(O)c1)[C@H](O)C2 [compound 30, Procyanidin B-4] | > 500 | – | >3.30 | – | 300 | >500 | > 500 | > 500 | 151 ± 28.1 | – | – | – | – | – |
| Oc1cc(O)c2c(c1)O[C@H](c1ccc(O)c(O)c1)[C@H](O)[C@H]2c1c(O)cc(O)c2c1O[C@H](c1ccc(O)c(O)c1)[C@H](O)[C@H]2c1c(O)cc(O)c2c1O[C@H](c1ccc(O)c(O)c1)[C@H](O)C2 [compound 31, Procyanidin C-1] | > 500 | – | >2.90 | – | 300 | >500 | > 500 | > 500 | 173 ± 20.7 | – | – | – | – | – |

— publication PMC9862759 (Viruses, 2023)
